Measurements as given in patent US5272178A, “Compounds of cyclic phenolic thioethers which are useful in stimulating and inhibiting superoxide generation” (G. D. Searle & Co., priority 1993, dated 1993).
Values belong to the molecule of their own block, whether it stands above or below them.

Tests used:
human neutrophils = assay: Human neutrophil superoxide generation (FMLP-stimulated, cytochrome C reduction); type: cell-based; details: for IC50: read-out: FMLP Induced Superoxide Generation, Inhibition IC50
Description: The compounds of the invention are evaluated with respect to superoxide modulating activity according to the following assay procedure:
Human neutrophil superoxide generation: Superoxide generation by formyl-methionyl-leucyl-phenylalanine (FMLP)-stimulated neutrophils was quantitated by the reduction of cytochrome C (Badwey, J. A., Curnutte, J. T. and Karnovsky, M. L., cis-Polyunsaturated fatty acids induce high levels of superoxide production by human neutrophils. J. Biol. Chem. 256: 12640-12643, 1981.) To 5 million neutrophils in 2.85 ml of Krebs-Ringer phosphate buffer, pH 7.2, 50 ul of inhibitor (in 10% DMSO/buffer), and 50 ul ferricytochrome C (5 mM, stock) were added and preincubated for 3 minutes at 37° C. Absorption measurements at 550 nm were recorded at start of preincubation. Fifty ul FMLP (6 uM, stock) was added to initiate reaction. A plateau was reached within 3 minutes and this reading minus the initial reading (before addition of FMLP) was used to calculate nanomoles of superoxide generated based on a molar extinction coefficient of 2.1×10^4 cm^-1 mole^-1.
Isolation of human neutrophils: Human neutrophils were isolated from freshly drawn blood of healthy donors. Two ml of 5% dextran (MW 200,000-300,000) in saline was added to 10 ml aliquots of blood, mixed and placed upright for 45 min. at 37° C. Approx. 8-10 ml of the plasma-white cell suspension from the dextran sedimentation was layered on 3 ml of Ficol-paque in a 15 ml tube and centrifuged at 400 g for 30 min. The supernate, containing plasma and platelets, was discarded by aspiration, and the pellet, containing predominantly neutrophils, was resuspended in 1 ml saline. The suspension was transferred to a clean tube, and pooled with other aliquots of blood treated similarly. The pooled suspension was centrifuged at 350 g for 5 min. and supernate discarded. The pellet was resuspended in 5 ml of 0.05% NaCl with a plastic Pasteur pipette for 25 seconds to lyse contaminating red cells, then 5 ml of 1.75% NaCl added to regain isotonicity. The red cell lysing procedure was repeated, the cells suspended in appropriate buffer (depending on assay) and counted.

5-lipoxygenase = target: T1, 5-lipoxygenase (Rattus norvegicus, UniProt P12527); assay: Inhibition of 5-lipoxygenase, in vitro (5-HETE synthesis, RBL-1 100,000 x g supernatant); type: biochemical; details: for activation at 100 µM / activation at 10 µM: stimulation, read-out: 5-Lipoxygenase, Stimulated %
T1 construct: The 100,000 x g supernatant fraction of Rat Basophilic Leukemia Cell Homogenate (RBL-1); endogenous in cells; host or cells: RBL-1 (rat basophilic leukemia) cells, 100,000 x g supernatant of homogenate
T1 sequence (P12527 1-673): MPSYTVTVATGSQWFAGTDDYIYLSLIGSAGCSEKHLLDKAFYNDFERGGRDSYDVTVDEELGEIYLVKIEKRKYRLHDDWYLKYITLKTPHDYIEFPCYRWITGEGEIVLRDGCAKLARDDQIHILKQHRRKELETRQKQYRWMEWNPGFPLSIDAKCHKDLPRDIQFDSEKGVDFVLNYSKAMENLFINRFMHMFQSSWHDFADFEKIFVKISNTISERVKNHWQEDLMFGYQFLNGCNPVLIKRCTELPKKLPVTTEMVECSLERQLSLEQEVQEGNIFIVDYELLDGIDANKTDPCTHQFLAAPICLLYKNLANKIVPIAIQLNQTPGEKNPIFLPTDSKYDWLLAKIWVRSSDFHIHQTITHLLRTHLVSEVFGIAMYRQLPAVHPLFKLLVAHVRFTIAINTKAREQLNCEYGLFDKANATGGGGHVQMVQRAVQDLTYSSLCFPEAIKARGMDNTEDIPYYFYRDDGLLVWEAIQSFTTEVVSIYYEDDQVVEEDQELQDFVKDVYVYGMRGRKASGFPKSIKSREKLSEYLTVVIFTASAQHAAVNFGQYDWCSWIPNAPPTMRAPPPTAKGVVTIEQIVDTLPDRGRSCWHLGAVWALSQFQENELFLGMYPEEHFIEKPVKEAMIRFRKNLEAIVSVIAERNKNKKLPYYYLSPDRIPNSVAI
Description: The compounds of the invention are evaluated with respect to 5-lipoxygenaseinhibition according to the following assay procedure.
Inhibition of 5-lipoxygenase, in vitro: anti-inflammatory, anti-allergy activities.
The 100,000 x g supernatant fraction of Rat Basophilic Leukemia Cell Homogenate (RBL-1) serves as a 5-lipoxygenase enzyme source. The enzyme is incubated with [1-^14 C)-arachidonic acid and Ca++ in the presence and absence of test compound. The product of 5-lipoxygenase, 5-hydroxyeicosatetraenoic acid (5-HETE), is separated by thin-layer chromatography an measured by radioactivity. A compound inhibiting 5-HETE synthesis by 30% or more is considered active at that concentration.
For comparison the compound of Formula XX, a known 5-lipoxygenase inhibitor described in U.S. Pat. No. 4,755,524 was used. [drawing 13]

[1] = target: T2, Sheep Seminal Vesicle Microsome Cyclooxygenase (Ovis aries, UniProt P05979); assay: Inhibition of Sheep Seminal Vesicle Microsome Cyclooxygenase; type: biochemical
T2 construct: Lyophilized ovine microsome (approx. 1 mg) suspended in 2.9 ml Tris-HCl buffer, pH 8.2, containing 0.7 mM phenol were used as source; from tissue; host or cells: sheep seminal vesicle microsomes (lyophilized)
T2 sequence (P05979 25-600): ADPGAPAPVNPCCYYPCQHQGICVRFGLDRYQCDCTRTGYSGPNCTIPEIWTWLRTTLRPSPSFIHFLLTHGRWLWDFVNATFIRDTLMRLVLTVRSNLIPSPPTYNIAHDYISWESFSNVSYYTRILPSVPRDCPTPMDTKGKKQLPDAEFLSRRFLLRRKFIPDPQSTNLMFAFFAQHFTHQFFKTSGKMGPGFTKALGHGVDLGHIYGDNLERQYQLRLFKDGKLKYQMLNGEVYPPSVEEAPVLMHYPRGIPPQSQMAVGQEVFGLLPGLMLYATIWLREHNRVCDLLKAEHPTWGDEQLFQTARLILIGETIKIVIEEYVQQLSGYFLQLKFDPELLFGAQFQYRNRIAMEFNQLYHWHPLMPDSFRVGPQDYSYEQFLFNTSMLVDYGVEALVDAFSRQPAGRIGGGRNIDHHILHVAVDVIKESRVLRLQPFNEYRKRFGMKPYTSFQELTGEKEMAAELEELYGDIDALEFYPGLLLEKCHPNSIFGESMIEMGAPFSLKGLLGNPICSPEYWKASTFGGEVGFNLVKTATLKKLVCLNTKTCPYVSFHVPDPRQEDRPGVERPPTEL
Description: The compounds of the present invention evaluated with respect to cyclooxygenase inhibition according to the following assay procedure. Inhibition of Sheep Seminal Vesicle Microsome Cyclooxygenase The assay was based on oxygen consumption during conversion of arachidonic acid to prostaglandin G2 catalyzed by cyclooxygenase Biochem. 11:3276-3285 (1972). Lyophilized ovine microsome (approx. 1 mg) suspended in 2.9 ml Tris-HCl buffer, pH 8.2, containing 0.7 mM phenol were used as source of arachidonate cyclooxygenase. The inhibitor, 50 μl in DMSO, was added and the mixture preincubated for 5 minutes at 37° C. Fifty μl of arachidonic acid (final conc. 50 μM) was added to start the reaction. The slopes of the initial rates of oxygen uptake, in the presence and absence of inhibitor, were compared to determine reaction inhibition. Percent inhibition was computed using the following formula: [formula]

[2] = Homo sapiens, Neutrophil, % above control, read-out: FMLP Induced Superoxide Generation, Stimulation, % > control

SMILES: CC(C)(C)c1cc(S[C@@H]2CCCC[C@H]2SCC(=O)O)cc(C(C)(C)C)c1 (relative stereo) [Example 5, trans-[[2-[[3,5-bis(1,1-dimethylethyl)phenyl]thio]cyclohexyl]thio]acetic acid]
- IC50 (human neutrophils; Homo sapiens, Neutrophil): 1.1 µM
- IC50 (5-lipoxygenase): 100 µM

SMILES: O=C(O)CS[C@@H]1CCCC[C@H]1Sc1cccc(-c2ccccc2)c1 (relative stereo) [Example 15]
- IC50 [1]: 64 µM
- IC50 (human neutrophils; Homo sapiens, Neutrophil): 2.8 µM
- inhibition at 100 µM (5-lipoxygenase; at 10^-4 M, inhibition, read-out: 5-Lipoxygenase, Inhibited %): 21.3%
- inhibition at 10 µM (5-lipoxygenase; at 10^-5 M, inhibition, read-out: 5-Lipoxygenase, Inhibited %): 14.9%

SMILES: COC(=O)CS[C@@H]1CCCC[C@H]1Sc1cc(C(C)(C)C)cc(C(C)(C)C)c1 (relative stereo) [Example 4]
- activation at 1 µM (human neutrophils; Homo sapiens, Neutrophil, 1 μM, % above control, read-out: FMLP Induced Superoxide Generation, Stimulation, % > control): 67%
- activation at 10 µM (human neutrophils; [2]): 133%
- activation at 100 µM (human neutrophils; Homo sapiens, Neutrophil, 100 μM, % above control, read-out: FMLP Induced Superoxide Generation, Stimulation, % > control): 167%

SMILES: O=C(O)CS[C@@H]1CCCC[C@H]1Sc1ccccc1 (relative stereo) [Example 7]
- cyclooxygenase inhibition (statement in words) [1]: did not inhibit either 5-lipoxygenase or cyclooxygenase
- Cyclooxygenase Inhibition (in words) ([1]; at 100 μM): Inactive
- superoxide generation (statement in words) (human neutrophils): did inhibit superoxide generation
- IC50 (human neutrophils; Homo sapiens, Neutrophil): 50 µM
- 5-lipoxygenase inhibition (statement in words) (5-lipoxygenase): did not inhibit either 5-lipoxygenase or cyclooxygenase
- activation at 100 µM (5-lipoxygenase; at 10^-4 M): 45%
- activation at 10 µM (5-lipoxygenase; at 10^-5 M): 27%

SMILES: CC(C)(C)c1cccc(S[C@@H]2CCCC[C@H]2SCC(=O)O)c1 (relative stereo) [Example 11]
- IC50 [1]: 2.9 µM
- IC50 (human neutrophils; Homo sapiens, Neutrophil): 4.8 µM
- activation at 100 µM (5-lipoxygenase; at 10^-4 M): 2.5%
- activation at 10 µM (5-lipoxygenase; at 10^-5 M): 3.2%

Continued, in another order:

- IC50 (human neutrophils; Homo sapiens, Neutrophil): 11 µM
SMILES: C[C@H](Sc1cc(C(C)(C)C)c(O)c(C(C)(C)C)c1)[C@@H](C)OCC(=O)O (relative stereo) [Formula XX, reference compound]
- superoxide generation (statement in words) (human neutrophils): inhibited both superoxide generation and 5-lipoxygenase
- 5-lipoxygenase inhibition (statement in words) (5-lipoxygenase): inhibited both superoxide generation and 5-lipoxygenase

- 5-lipoxygenase inhibition (statement in words) (5-lipoxygenase): inhibited 5-lipoxygenase
- IC50 (5-lipoxygenase): 100 µM
SMILES: CN(CCc1ccccn1)C(=O)CS[C@@H]1CCCC[C@H]1Sc1cc(C(C)(C)C)cc(C(C)(C)C)c1 (relative stereo) [Example 16]
- superoxide generation (statement in words) (human neutrophils): stimulated superoxide generation
- activation at 10 µM (human neutrophils; [2]): 33%
- activation at 25 µM (human neutrophils; Homo sapiens, Neutrophil, 25 μM, % above control, read-out: FMLP Induced Superoxide Generation, Stimulation, % > control): 83%
- activation at 50 µM (human neutrophils; Homo sapiens, Neutrophil, 50 μM, % above control, read-out: FMLP Induced Superoxide Generation, Stimulation, % > control): 100%

- IC50 (human neutrophils; Homo sapiens, Neutrophil): 3.4 µM
- IC50 (5-lipoxygenase): > 100 µM
SMILES: CC(C)(C)c1cc(S[C@@H]2CCCC[C@H]2OCC(=O)O)cc(C(C)(C)C)c1 (relative stereo) [Example 17]
